Assay results from patent US20250101062A1, “ANTIMICROBIAL PEPTIDES” (Board of Regents of the University of Nebraska, priority 2023, published 2025).
Where no end group is shown, it is not given here.

Legend:
Type in all cases: cell-based, Staphylococcus aureus
MRSA USA300 [1] = test: microbe, parasite or virus in culture; conditions: 17 passages at sub-MIC
Description: The experiment was conducted as described (Lakshmaiah et al. (2020) Proc. Natl. Acad. Sci., 117:19446-19454). Briefly, MRSA USA300 was grown to the exponential phase in MHB and diluted to OD600 0.001 (˜10^5 CFU/mL). Aliquots of 90 μL were added to a 96-well polystyrene microplate (Costar, Corning, NY) containing 10 μL of serially diluted LL-37mini, nafcillin, or daptomycin. After overnight incubation at 37° C., the plates were read at 600 nm using a ChroMate™ microplate reader (GMI, Ramsey, MN). Untreated bacterial culture and medium were included as untreated control and blank, respectively. The MIC is the lowest peptide concentration that inhibited the bacterial growth. The wells with sub-MIC levels of the peptides that retained growth approximately half the growth of the control wells were reinoculated in fresh MHB with sub-MIC concertation of peptides or antibiotics to attain exponential phase for MIC determination. In total, 17 passages of the bacterial cultures were conducted. A rapid increase in MIC is an indication of antibiotic resistance.

[2] = tested on: S. aureus USA300 LAC biofilms; test: Disruption of preformed biofilms in vitro (XTT)
Description: Effects of Peptides on Established Biofilms in Vitro. Bacteria (S. aureus USA300 LAC and E. coli E423-17) were grown in rich TSB media overnight. A second inoculation was made the next day to reach an exponential phase (OD600˜0.4). Microtiter plates (96 wells, Corning Costar Cat no. 3595), after aliquoting with 180 μL of the culture to each well, were incubated at 37° C. for 24 hours to form biofilms in rich TSB. Media were aspirated post incubation, and the attached biofilms were washed with 1×PBS to remove the planktonic bacteria. […] Biofilms treated with water served as the positive control, while media without bacterial inoculation served as the negative control. Live cells in the biofilms were quantitated using XTT as described above. Absorbance was read at 450 nm (only media with XTT containing wells served as the blank) using a ChroMate™ microtiter plate reader. Percentage biofilm growth for the peptide was plotted by assuming 100% biofilm growth in bacterial control alone. The data were represented as mean±SD; plots were generated using GraphPad prism 7, where * indicates p<0.05, **p<0.01, and ***P<0.001, and ****p<0.0001 (one-way analyses of variance).
LL-37 is known to inhibit bacterial biofilms (Overhage, et al. (2008) Infect. Immun., 76:4176-4182). However, it was unable to disrupt preformed MRSA biofilms in rich media (Mishra, et al. (2016) ACS Med. Chem. Lett., 7:117-121). Next, it was determined whether the diluted MHB medium could be useful to detect biofilm-disrupting activity for LL-37 against MRSA. An established procedure (Mishra, et al. (2016) ACS Med. Chem. Lett., 7:117-121; Duplantier, et al. (2013) Front. Immunol., 4:143) was used wherein biofilms were formed and washed as usual to remove planktonic cells. The biofilms were then treated with peptides in 12.5% MHB for 24 hours. Finally, live cells were quantified with XTT (ATCC). FIG. 2 compares the levels of live cells of MRSA in the preformed biofilms after 24 hour treatment. […] Of note is a similar pattern for both peptides in 12.5% MHB treated at various concentrations.
Bacteria (S. aureus USA300 LAC or P. aeruginosa E411-17) were grown up in TSB media overnight. A second inoculation was made the next day to reach an exponential phase (OD600˜0.4). Microtiter plates (96 wells, Corning Costar Cat No. 3595), after aliquoting with 180 μL of the culture to each well, were incubated at 37° C. for 24 hours to form biofilms in rich TSB. Media were aspirated post incubation and the attached biofilms were washed with 1×PBS to remove the planktonic bacteria. […] Biofilms treated with water served as the positive control while media without bacterial inoculation served as the negative control. Live cells in the biofilms were quantitated using the XTT as described above. Absorbance was read at 450 nm (only media with XTT containing wells served as the blank) using a ChroMate® microtiter plate reader. Percentage biofilm growth (the plot legend is antibiofilm activity) for the peptides was plotted by assuming 100% biofilm growth in bacterial control alone. The data were represented as mean±SD, plots were generated using GraphPad prism 7, where * indicates p<0.05, ** p<0.01, and ***P<0.001, and ****p<0.0001 (one-way analyses of variance).

MRSA USA300 [3] = test: Membrane depolarization (DiBAC4(3))
Description: An overnight culture of MRSA USA300 was inoculated into TSB and grown to an exponential phase. Bacteria were washed with 1×PBS, resuspended in twice the volume of 1×PBS containing 25 mM glucose, and incubated at 37° C. for 15 minutes. Then, 500 nM (final concentration) of DiBAC4 (3) bis(1, 3-dibutylbarbituric acid) trimethine oxonol (ANASPEC, CA) was added, and the mixture was vortexed gently. Aliquots of 90 μL of the energized bacteria solution were loaded into the 96-well plates (Corning COSTAR, AZ) and placed in a FLUOstar® Omega microplate reader (BMG LABTECH, NC). Fluorescence was read for 20 minutes at excitation and emission wavelengths of 485 and 520 nm, respectively. Then, 10 μL of peptide solutions was added, and fluorescence readings were recorded for 40 minutes. Triton® X-100 (0.1%) was used as the positive control.
Bacterial membrane depolarization was conducted (Marks, et al. (2013) PLoS One 8(5):e63158). […] Aliquots of 90 μL of the energized bacteria solution were loaded to the 96 well plates (Corning COSTAR, AZ) and placed in a FLUOstar® Omega microplate reader (BMG LABTECH, NC). Fluorescence was read for 20 minutes at excitation and emission wavelengths of 485 nm and 520 nm, respectively. Then, 10 μL of peptide solutions was added and fluorescence readings were recorded for 40 minutes. […]

| Compound | resistance development (MRSA USA300 [1]) | peptide concentration showing biofilm disruption ([2]; 24 h preformed biofilm, 12.5% MHB) [µM] | antibiofilm activity ([2]; 24 h preformed biofilm, 100% MHB) | membrane depolarization (MRSA USA300 [3]; Example 2, PBS with glucose) | effect on preformed biofilms ([2]; 48 or 72 hour preformed biofilms) | effect on preformed biofilms ([2]; 24 hours preformed biofilms, 32 μM) | membrane depolarization (MRSA USA300 [3]; Example 1, highest concentration tested) |
| --- | --- | --- | --- | --- | --- | --- | --- |
| CCCCCCCCCC(=O)N[C@@H](Cc1c[nH]c2ccccc12)C(=O)N[C@H](CC(N)=O)C(=O)N[C@@H](CC(=O)O)C(=O)N[C@@H]1C(=O)NCC(=O)N[C@@H](CCCN)C(=O)N[C@@H](CC(=O)O)C(=O)N[C@H](C)C(=O)N[C@@H](CC(=O)O)C(=O)NCC(=O)N[C@H](CO)C(=O)N[C@@H]([C@H](C)CC(=O)O)C(=O)N[C@@H](CC(=O)c2ccccc2N)C(=O)O[C@@H]1C [Daptomycin] | did not develop resistance | – | – | – | – | – | – |
| CC[C@H](C)[C@H](NC(=O)[C@H](CCCCN)NC(=O)[C@H](CCC(=O)O)NC(=O)[C@H](CCCCN)NC(=O)[C@H](CO)NC(=O)[C@H](CCCCN)NC(=O)[C@H](CCCNC(=N)N)NC(=O)[C@H](Cc1ccccc1)NC(=O)[C@H](Cc1ccccc1)NC(=O)[C@H](CC(=O)O)NC(=O)CNC(=O)[C@H](CC(C)C)NC(=O)[C@@H](N)CC(C)C)C(=O)NCC(=O)N[C@@H](CCCCN)C(=O)N[C@@H](CCC(=O)O)C(=O)N[C@@H](Cc1ccccc1)C(=O)N[C@@H](CCCCN)C(=O)N[C@@H](CCCNC(=N)N)C(=O)N[C@H](C(=O)N[C@H](C(=O)N[C@@H](CCC(N)=O)C(=O)N[C@@H](CCCNC(=N)N)C(=O)N[C@H](C(=O)N[C@@H](CCCCN)C(=O)N[C@@H](CC(=O)O)C(=O)N[C@@H](Cc1ccccc1)C(=O)N[C@@H](CC(C)C)C(=O)N[C@@H](CCCNC(=N)N)C(=O)N[C@@H](CC(N)=O)C(=O)N[C@@H](CC(C)C)C(=O)N[C@H](C(=O)N1CCC[C@H]1C(=O)N[C@@H](CCCNC(=N)N)C(=O)N[C@H](C(=O)N[C@@H](CCC(=O)O)C(=O)N[C@@H](CO)C(=O)O)[C@@H](C)O)C(C)C)[C@@H](C)CC)C(C)C)[C@@H](C)CC [LL-37] | – | 32 | essentially no antibiofilm activity | most powerful in membrane depolarization | – | – | – |
| RRWWRWWR-NH2 [W543] | essentially no change in the MIC values | – | – | – | Better disruptive effects than daptomycin | essentially eliminated | did not show a clear effect |
